Measurements published in patent US9345789B2, “Specific inhibitors and active site probes for legumain” (The Board of Trustees of the Leland Stanford Junior …, priority 2009, dated 2016).
“And” between values parts separate entries of the source, which are not always exact repeats. Equal values may be shown once. Read-outs that look alike come from different tables or passages of the source.

How the values were obtained:
cathepsins [1] = experiment: Off-target labeling of cathepsins in intact RAW 264.7 macrophages; assay type: cell-based; details: for labeling of cathepsins: high concentrations; for cross reactivity towards lysosomal cathepsins: intact RAW 264.7 macrophages
Description: Immunoprecipitation of cathepsins in intact raw 264.7 cells. […] High concentration of LP-1 was used to bring out all the off-target labeling in intact cells.
RAW 264.7 macrophages (600,000 cells/well) were seeded in a 6 well plate 24 hrs prior to labeling. […] High concentration of LP-1 was used to bring out all the off-target labeling in intact cells. Cells were washed with PBS buffer and lysed by addition of citrate-phosphate lysis buffer (50 mM citrate-phosphate, 1% CHAPS, 0.5% Triton, 5 mM DTT, pH 4.5). 20 μL of crude lysates were diluted to […] in RIPA buffer (phosphate-buffered saline, 0.5% NP-40, 1 mM EDTA, pH 7.4). Anti-mouse cathepsin B (E Weber Halle), anti-mouse cathepsin L (R&D Systems), anti-goat cathepsin S (Abchem) and anti-human cathepsin S (R&D Systems) were added and mixed for 15 mM at 0° C. 40 μL of Protein A/G Plus Agarose beads (Santa Cruz Biotechnology) were added and mixed overnight at 4° C. Samples were spun down and supernatant and beads were separated. Beads were washed with RIPA buffer and boiled after addition of sample buffer 2× (20% glycerol, 100 mM Tris HCl, pH 6.8, 6% SDS, and 10% b-mercaptoethanol). Acetone was added to the supernatant and kept at −80° C. for 2 h. Precipitated proteins were collected by centrifugation in the cold for 30 min, dried, and dissolved by boiling in sample buffer. Samples without immunoprecipitation (input), pellets (P) and supernatant (S) were separated on a 12.5% SDS-PAGE and visualized by scanning of the gel with a Typhoon flatbed laser scanner (excitation/emission 633/680 nm).
We treated intact NIH-3T3 and RAW 264.7 cells with LP-1 and LP-O respectively and monitored protein labeling using SDS-PAGE followed by scanning of the gel to detect the Cy5 fluorescence (FIG. 2). […] The identity of these off targets as cathepsins was confirmed by pre-treatment of cells with the broad-spectrum cathepsin inhibitor JPM-OEt (21) and further verified by immunoprecipitation (FIG. 16). Although some degree of cross reactivity of AOMK probes towards cathepsins has been reported (15), attempts to inhibit cathepsins with various aza-epoxide inhibitors have been unsuccessful (22). Therefore, the labeling of cathepsins by LP-I was particularly surprising. […] Furthermore, when cells were pre-treated with legumain inhibitors we observed more intense cathepsin labeling. […]
RAW 264.7 cells (250,000 cells/well) and NIH-3T3 cells (200,000 cells/well) were seeded in a 24 well plate 24-30 hrs prior to labeling. […] Labeled proteins were analyzed by scanning the gel with a Typhoon flatbed laser scanner (ex. 633 nM/em. 680 nM). […] The labeled samples were separated by 12.5% SDS-PAGE and analyzed by scanning the gel with a Typhoon flatbed scanner.

legumain [2] = biological target: T1, legumain (Mus musculus (Mouse), UniProt O89017); experiment: Labeling of active legumain in intact NIH-3T3 fibroblasts (SDS-PAGE, Cy5 scan); assay type: cell-based
Source text: We treated intact NIH-3T3 and RAW 264.7 cells with LP-1 and LP-O respectively and monitored protein labeling using SDS-PAGE followed by scanning of the gel to detect the Cy5 fluorescence (FIG. 2). […] The identity of these off targets as cathepsins was confirmed by pre-treatment of cells with the broad-spectrum cathepsin inhibitor JPM-OEt (21) and further verified by immunoprecipitation (FIG. 16). Although some degree of cross reactivity of AOMK probes towards cathepsins has been reported (15), attempts to inhibit cathepsins with various aza-epoxide inhibitors have been unsuccessful (22). Therefore, the labeling of cathepsins by LP-I was particularly surprising. […] Furthermore, when cells were pre-treated with legumain inhibitors we observed more intense cathepsin labeling. This could be explained by the fact that cathepsins are known to be substrates for legumain (3, 23), thus legumain inhibition could result in increased levels of cathepsins and therefore increased non-specific labeling by the legumain probes.
(§1) RAW 264.7 cells (250,000 cells/well) and NIH-3T3 cells (200,000 cells/well) were seeded in a 24 well plate 24-30 hrs prior to labeling. Cells were pre-treated with appropriate inhibitors for 1.5 hrs and labeled by addition of each probe for 1 hrs; the final DMSO concentration was maintained less than 0.2%. Cells were washed with PBS buffer and lysed by addition of sample buffer. Crude lysates were collected and separated by 12.5% SDS-PAGE. Labeled proteins were analyzed by scanning the gel with a Typhoon flatbed laser scanner (ex. 633 nM/em. 680 nM). For lysates labeling, cytosolic lysates of RAW 264.7 cells were prepared as previously described (29). Lysates were diluted to 1 mg/ml in 50 mM citrate phosphate buffer (pH 4.5), 0.1% CHAPS, 5 mM DTT and subjected to direct labeling. 25˜L of lysates samples were pre-treated with inhibitors for 30 min and labeled with probes for another 30 min. The labeled samples were separated by 12.5% SDS-PAGE and analyzed by scanning the gel with a Typhoon flatbed scanner.
Target sequence in this assay (O89017 18-325): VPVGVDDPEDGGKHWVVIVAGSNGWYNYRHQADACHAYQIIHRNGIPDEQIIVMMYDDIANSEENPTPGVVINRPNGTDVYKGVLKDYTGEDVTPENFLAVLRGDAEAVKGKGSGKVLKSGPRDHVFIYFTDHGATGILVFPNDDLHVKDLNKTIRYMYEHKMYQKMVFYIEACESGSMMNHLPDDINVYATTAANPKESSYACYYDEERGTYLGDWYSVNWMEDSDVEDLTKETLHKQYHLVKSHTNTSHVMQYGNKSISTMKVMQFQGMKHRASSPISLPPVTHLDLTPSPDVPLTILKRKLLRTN

[3] = tested on: caspase 3, cathepsin B or cathepsin L; experiment: Selectivity: inhibition of enzymes other than legumain; assay type: biochemical; details: for inhibitory effect against other enzymes: even at millimolar concentrations
Description: Disclosed below are activity based probes, i.e., they only label active enzyme. The probes are specific for legumain, and may be used to inhibit or inhibit and label active enzyme in situ. […] It may be said, for example, the activity towards legumain will be on the order of at least 3 times greater for legumain than caspase 3, cathepsin B or cathepsin L, preferably at least 10 times greater, and even 100 times greater.
(§2) Assay buffers consist of 20 mM citric acid, 60 mM disodium hydrogen orthophosphate, 1 mM EDTA, 0.1% CHAPS, 4 mM DTT, pH 5.8 for legumain, 50 mM dihydrogen sodium orthophosphate, 1 mM EDTA, 5 mM DTT, pH 6.25 for cathepsin B and cathepsin Land 100 mM Tris, 0.1% CHAPS, 10% sucrose, 10 mM DTT, pH 7.4 for caspase-3.

cathepsin L = cathepsin L (Homo sapiens (Human), UniProt P07711); experiment: Inhibition of cathepsin L, fluorogenic substrate Cbz-Phe-Arg-AMC
Sequence of cathepsin L (P07711 114-333, species assumed): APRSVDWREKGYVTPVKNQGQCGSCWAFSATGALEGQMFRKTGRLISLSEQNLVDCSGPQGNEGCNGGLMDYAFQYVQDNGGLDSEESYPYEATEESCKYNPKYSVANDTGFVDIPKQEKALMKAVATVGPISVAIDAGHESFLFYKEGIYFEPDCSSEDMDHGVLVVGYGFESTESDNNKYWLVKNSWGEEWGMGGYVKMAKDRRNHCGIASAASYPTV
Description: (§4) Determination of IC50 against cysteine proteases and second order rate constants (kobs1[I]) for legumain Activity of legumain was measured with the fluorogenic substrate, Cbz-Ala-Ala-Asn-AMC (Anaspec), cathepsin B and cathepsin L was measured with Cbz-Phe-Arg-AMC (Bachem), and caspase-3 was measured with Caspase-3 Substrate VII (Calbiochem). […] The increase in fluorescence was continuously monitored every 30 see for 2.5 hrs with a Spectramax M5 fluorescent plate reader (Molecular Devices), and inhibition curves were recorded. […] ICso values with known broad-spectrum cathepsin inhibitor (JPM-OEt) and caspase-3 inhibitor (Z-DEVD-FMK) were also measured for comparison. All measurements were performed in triplicate and the average values were reported.

recombinant legumain = recombinant legumain (Homo sapiens (Human), UniProt Q99538); experiment: Inhibition of recombinant legumain, fluorogenic substrate Cbz-Ala-Ala-Asn-AMC; assay type: biochemical; details: for IC50: at 60 min
Sequence of recombinant legumain (Q99538 18-433, species assumed): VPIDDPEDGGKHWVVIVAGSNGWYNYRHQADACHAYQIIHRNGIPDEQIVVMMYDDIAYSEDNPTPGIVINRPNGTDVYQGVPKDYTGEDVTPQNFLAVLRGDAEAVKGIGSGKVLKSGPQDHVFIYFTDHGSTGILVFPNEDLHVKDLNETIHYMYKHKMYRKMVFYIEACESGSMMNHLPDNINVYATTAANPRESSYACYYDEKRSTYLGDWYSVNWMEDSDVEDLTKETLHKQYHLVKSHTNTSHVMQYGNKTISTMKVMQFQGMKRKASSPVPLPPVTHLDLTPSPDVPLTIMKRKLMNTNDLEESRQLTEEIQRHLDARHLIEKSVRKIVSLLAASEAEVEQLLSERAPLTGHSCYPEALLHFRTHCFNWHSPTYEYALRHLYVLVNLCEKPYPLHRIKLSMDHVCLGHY
Description: as §2
Second-order inhibition rate constants were determined by following the previously described method in the literature (6). The pseudo-first-order rate constants (kobs) were obtained from plots of In vJ Vo versus time where Vo is the rate of hydrolysis of fluorogenic substrate and Vt is the rate of hydrolysis of substrate in the presence of the inhibitor. The second-order inhibition rate constants were calculated using the following equation. Second order rate constant=(kobs1[I])(1+[S]/Km)

caspase-3 = caspase-3 (Homo sapiens (Human), UniProt P42574); experiment: Inhibition of caspase-3, Caspase-3 Substrate VII; details: read-out: Caspase-3 IC50; at 30 min
Sequence of caspase-3 (P42574 29-175, species assumed): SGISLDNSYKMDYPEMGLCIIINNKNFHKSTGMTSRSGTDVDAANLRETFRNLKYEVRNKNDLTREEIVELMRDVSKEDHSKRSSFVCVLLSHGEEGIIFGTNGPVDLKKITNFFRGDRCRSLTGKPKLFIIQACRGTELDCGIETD
Sequence of caspase-3 (P42574 176-277, species assumed): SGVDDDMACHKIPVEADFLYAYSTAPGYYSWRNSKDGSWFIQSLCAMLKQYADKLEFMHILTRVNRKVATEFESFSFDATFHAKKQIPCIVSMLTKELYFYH
Description: as §4

legumain [4] = biological target: T1, legumain; experiment: Ex vivo imaging of organs and SDS-PAGE analysis of organ lysates; assay type: in vivo, mice
Description: (§3) In vivo/ex vivo imaging and SDS-PAGE analysis of organ lysates was conducted as follows: Tumor bearing mice were prepared by following the previously described method (24). C2C12/Hras1 or MDA-MB 231 MFP cells ([…]) were injected subcutaneously on 4-8 week old male BALB/c nude mice. 14 days after transplantation, each probe (25 nmol in 100˜L of sterile PBS) was injected via the tail vein into tumor-bearing mice. Mice were imaged at various time points after injection using the IVIS 200 imaging system equipped with a Cy5.5 filter. Relative fluorescence of equal-sized areas of tumor and background were measured using Living Image software (Caliper life science). Upon finishing the last time point of imaging, mice were anesthetized and sacrificed by cervical dislocation. Tumors, livers, kidneys and spleens were collected and imaged ex vivo by using the FMT 2500 with a Cy5 filter. After ex vivo imaging, organs were lysed by a dounce homogenizer in muscle lysis buffer (1% Triton X-100, 0.1% SDS, 0.5% sodium deoxycholate, 0.2% sodium azide in PBS, pH 7.2). Total protein extracts (100˜g each) were separated by SDS-PAGE and visualized by scanning the gel with a Typhoon flatbed laser scanner.
Target sequence in this assay (O89017 18-435): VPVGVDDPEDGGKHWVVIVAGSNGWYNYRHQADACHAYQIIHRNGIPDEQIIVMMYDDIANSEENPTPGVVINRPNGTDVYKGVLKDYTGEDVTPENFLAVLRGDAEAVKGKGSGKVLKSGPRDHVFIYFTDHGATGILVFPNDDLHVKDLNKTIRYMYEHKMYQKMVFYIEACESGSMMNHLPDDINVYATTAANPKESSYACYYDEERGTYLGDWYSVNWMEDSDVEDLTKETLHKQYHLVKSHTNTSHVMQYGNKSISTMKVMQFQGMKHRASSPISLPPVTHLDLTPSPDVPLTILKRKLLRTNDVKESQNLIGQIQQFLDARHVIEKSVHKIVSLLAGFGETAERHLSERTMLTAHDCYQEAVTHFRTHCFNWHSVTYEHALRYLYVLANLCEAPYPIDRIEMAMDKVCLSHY

cathepsins [5] = experiment: Competitive inhibition of cathepsins in RAW cell lysates, labeled by 125I-DCG04; assay type: biochemical; details: competition with 125I-DCG04
Source text: To test this hypothesis, we labeled RAW cell lysates with LP-1 and tLP-1 (FIG. 9).

legumain [6] = biological target: T1, legumain; experiment: Direct labeling of legumain in RAW cell lysates; assay type: biochemical
Description: as §1
Target sequence in this assay (O89017 18-435): as above
We believe that this cross-reactivity results from increased lysosomal uptake and is not the result of a loss of specificity as the result of addition of the tat peptide. […] We also performed a competition assay by pre-treating RAW lysates with each probe and labeling with the general cathepsin probe, I^125_DCG04 (25).

legumain [7] = biological target: T1, legumain; experiment: In vivo fluorescence imaging of mice bearing C2C12/ras xenograft tumors; details: IV tail vein, 25 nmol probe
Description: In order to examine in vivo properties of LP-1 and monitor active legumain levels non-invasively, we performed imaging experiments using a simple tumor xenograft model (C2C 1 2/Hras 1)(24). […] Mice were injected with the probes via tail vein and fluorescent images were collected over the course of 5 hrs. […] Furthermore, the specific legumain signal was reduced to background levels after 120 min. This is in contrast to the previously reported cathepsin probes which only provide contrast after 8-12 hours and signals are retained beyond 48 hours.
as §3
Target sequence in this assay (O89017 18-435): as above

cathepsin B = cathepsin B (Homo sapiens (Human), UniProt P07858); experiment: Inhibition of cathepsin B, fluorogenic substrate Cbz-Phe-Arg-AMC
Description: as §4

[8] = read-out: Cathepsin L IC50, at 30 min

In the case of `CCOC(=O)/C=C/C(=O)N(CC(N)=O)NC(=O)[C@@H]1CCCN1C(=O)CCCCCNC(=O)CCCCCN1/C(=C/C=C/C=C/C2=[N+](CC)c3ccc(S(=O)(=O)O)cc3C2(C)C)C(C)(C)c2cc(S(=O)(=O)O)ccc21` [LP-2], the labeling of cathepsins (cathepsins [1]) is reported as “did not label any cathepsins at high concentrations”.
For `CC[N+]1=C(/C=C/C=C/C=C2/N(CCCCCC(=O)NCCCCCC(=O)N3CCC[C@H]3C(=O)N[C@@H](CC(=O)O)C(=O)COC(=O)c3c(C)cccc3C)c3ccc(S(=O)(=O)O)cc3C2(C)C)C(C)(C)c2cc(S(=O)(=O)O)ccc21` [LP-0, reference compound], the “labeling of active legumain” value (legumain [2]) was “selectively labeled active legumain” and the “cross reactivity towards lysosomal cathepsins” value (cathepsins [1]) was “some degree of cross reactivity towards lysosomal cathepsins”.
`CCOC(=O)[C@@H]1O[C@H]1C(=O)N(CC(N)=O)NC(=O)C1CCCN1C(C)=O` (stereo partly drawn) [LI-1] was tested, and the “inhibitory effect against other enzymes” value [3] was “no inhibitory effect”, the IC50 (cathepsin L; [8]) was 220 µM and the “Legumain kobs/[I] (second-order rate constant)” value (from here on “Legumain kobs/[I]”) (recombinant legumain) was 72350 M⁻¹ s⁻¹ and 72352 M⁻¹ s⁻¹. For the same compound, the “potency and rate of legumain inhibition, comparison of inhibitors” value (recombinant legumain; FIG. 18) was “greater potency and rate than either Li-2 or LI-0”, the IC50 (recombinant legumain) was 0.0115 µM and the IC50 (caspase-3) was 890 µM.
For `CCOC(=O)C1OC1C(=O)N(CC(N)=O)NC(=O)C1CCCN1C(=O)CCCCCNC(=O)CCCCCN1C(=CC=CC=CC2=[N+](CC)c3ccc(S(=O)(=O)O)cc3C2(C)C)C(C)(C)c2cc(S(=O)(=O)O)ccc21` (stereo not drawn) [LP-1], the “labeling of active legumain” value (legumain [2]) was “selectively labeled active legumain”, the “labeling of active legumain” value (legumain [2]; listed as LP-I) was “labeled active legumain more efficiently than LP-0 at low probe concentrations” and the “legumain labeling in tumors, organ distribution and cathepsin cross reactivity” value (legumain [4]; ex vivo organs and SDS-PAGE of lysates) was “the most legumain labeling in tumors as well as the highest levels of legumain-specific fluorescent signal”. The “selectivity of legumain labeling in vivo” value (legumain [4]; organ extracts, SDS-PAGE) was “remarkably selective toward legumain in vivo and showed virtually no off-target labeling”, the inhibition of cathepsins (cathepsins [5]) was “equally poor inhibitors of the cathepsins” and the labeling of cathepsins (cathepsins [1]) was “labeled cathepsins only at high concentrations or when legumain activity is suppressed”. The “cross reactivity towards lysosomal cathepsins” value (cathepsins [1]) was “some degree of cross reactivity towards lysosomal cathepsins”, the reactivity towards legumain (legumain [6]) was “no difference in reactivity towards legumain” and the “accumulation / selective uptake in tumor” value (legumain [7]) was “rapidly accumulated in tumor tissues”. The “time after which specific legumain signal was reduced to background levels” value (legumain [7]) was 120 min and the “time of maximum tumor signal to background ratio” value (legumain [7]) was “around 90 min”.
With `CC(=O)N1CCC[C@H]1C(=O)N[C@@H](CC(=O)O)C(=O)COC(=O)c1c(C)cccc1C` [LI-0, reference compound] the IC50 (cathepsin L; [8]) was > 1000 µM, the IC50 (cathepsin B; read-out: Cathepsin B IC50, at 30 min) was > 1000 µM and the “Legumain kobs/[I]” value (recombinant legumain) was 1586 M⁻¹ s⁻¹. For the same compound, the IC50 (recombinant legumain) was 0.704 µM, the “Legumain kobs/[I]” value (recombinant legumain; listed as LI-O) was 1585 M⁻¹ s⁻¹ and the IC50 (caspase-3) was 2.8 µM.
Compound `CCOC(=O)[C@H]1O[C@@H]1C(=O)N[C@@H](CC(C)C)C(=O)NCCc1ccc(O)cc1` [JPM-OEt, reference compound] has an IC50 (cathepsin L) of 2.98 µM and an IC50 (cathepsin B) of 0.78 µM.
In the case of `CCOC(=O)/C=C/C(=O)N(CC(N)=O)NC(=O)[C@@H]1CCCN1C(C)=O` [LI-2], the selectivity for legumain ([3]; FIG. 18) is reported as “most selective for legumain” and the “inhibitory effect against other enzymes” value [3] is reported as “no inhibitory effect”.
